Results on 21 molecules are retold here after US4463004A, “Dioxazabicyclic derivatives” (Delalande S.A., priority 1981, dated 1984).

Data set [1] is described as follows: Acute toxicity, intraperitoneal (Miller and Tainter). The following applies: mouse, in vivo, ip; mice, i.p.; read-out: Acute toxicity LD 50. As for the experimental part: Acute toxicity was evaluated intraperitoneally in mice according to the method described by MILLER and TAINTER in Proc. Soc. Exp. Biol. Med. 57, 261 (1944).
The next data set deals with mice. The experiment in a line: analgesia test using phenylbenzoquinone. In kind it is in vivo. The following applies: Mus musculus, ip, read-out: Analgesia test ED 50. As for the experimental part: Exp. Biol. Med. 95, 729(1957).
The compounds of the invention were administered intraperitoneally.

Consider `COc1ccccc1C12CNCC(CO1)O2` (stereo not drawn) [compound 14], for which the LD50 in data set [1] stood at 300 mg/kg. For the same molecule, the ED50 with mice was 8 mg/kg.
For `O=C(O)c1ccc(C23CNCC(CO2)O3)cc1` (stereo not drawn) [compound 54], in data set [1], the LD50 was over 400 mg/kg. In the data set on mice, the ED50 came out at 38 mg/kg.
As for `O=[N+]([O-])c1ccc(C23CNCC(CO2)O3)cc1` (stereo not drawn) [compound 21], the LD50 in data set [1] was 290 mg/kg. In the data set with mice, the ED50 amounted to 10 mg/kg.
In the case of `c1ccc2cc(C34CNCC(CO3)O4)ccc2c1` (stereo not drawn) [compound 39], in data set [1], the LD50 was found to be 310 mg/kg. In addition, the ED50 with mice was determined as 8 mg/kg.
In the case of `c1ccc(-c2ccc(C34CNCC(CO3)O4)cc2)cc1` (stereo not drawn) [compound 40], the LD50 in data set [1] turned out to be 310 mg/kg. For the same molecule, the ED50 with mice amounted to 24 mg/kg.
Consider `CC(C)(C)C12CNCC(CO1)O2` (stereo not drawn) [Code number 1], for which the LD50 in data set [1] was found to be 400 mg/kg. For the same molecule, the ED50 with mice was 18 mg/kg.
On to `Clc1ccc(C23CNCC(CO2)O3)cc1Cl` (stereo not drawn) [compound 23], for which the LD50 in data set [1] was 300 mg/kg. Besides, the ED50 in the data set with mice was found to be 10 mg/kg.
Regarding `COc1ccc2cc(C34CNCC(CO3)O4)ccc2c1` (stereo not drawn) [compound 56], the LD50 in data set [1] was 240 mg/kg. Besides, the ED50 in the data set with mice stood at 21 mg/kg.
For `c1cncc(C23CNCC(CO2)O3)c1` (stereo not drawn) [compound 48], the LD50 in data set [1] was over 400 mg/kg. In addition, in the data set on mice, the ED50 is 58 mg/kg.
On the same counts, the results for `C1C2CC3CC1CC(C14CNCC(CO1)O4)(C2)C3` (stereo not drawn) [compound 36] are 185 mg/kg and 30 mg/kg.
For the molecule `c1csc(C23CNCC(CO2)O3)c1` (stereo not drawn) [Code number 4], in data set [1], the LD50 is over 400 mg/kg. In the data set with mice, the ED50 amounted to 24 mg/kg.
For the molecule `Fc1ccc(C23CNCC(CO2)O3)cc1` (stereo not drawn) [Code number 7, 5-parafluorophenyl-6,8-dioxa-3-azabicyclo [3.2.1] octane meleate], the LD50 in data set [1] was found to be 300 mg/kg. In the data set on mice, the ED50 was determined as 10 mg/kg.
With `CC(=O)Nc1ccc(C23CNCC(CO2)O3)cc1` (stereo not drawn) [compound 44], the LD50 in data set [1] was determined as 380 mg/kg. Further, in the data set with mice, the ED50 was found to be 7 mg/kg.
`c1ccc2c(C34CNCC(CO3)O4)cccc2c1` (stereo not drawn) [compound 58]: in data set [1], the LD50 was 160 mg/kg. For the same molecule, the ED50 in the data set on mice amounted to 28 mg/kg.
On to `c1ccc(CN2CC3COC(C4CCCCC4)(C2)O3)cc1` (stereo not drawn) [compound 30], for which the LD50 in data set [1] is over 400 mg/kg. Moreover, the ED50 with mice was found to be 26 mg/kg.
In the case of `CCN1CC2COC(c3ccc(F)cc3)(C1)O2` (stereo not drawn) [compound 25], the LD50 in data set [1] was 280 mg/kg. Moreover, the ED50 in the data set with mice was found to be 14 mg/kg.
On the same counts, the results for `c1cc(C23CNCC(CO2)O3)ccc1C1CCCCC1` (stereo not drawn) [compound 42] are over 400 mg/kg and 15 mg/kg.
In the case of `Clc1cccc(C23CNCC(CO2)O3)c1` (stereo not drawn) [Code number 9], in data set [1], the LD50 was found to be 240 mg/kg. In the data set on mice, the ED50 amounted to 10 mg/kg.
As for `Fc1ccc(C23CCCNCC(CO2)O3)cc1` (stereo not drawn) [compound 32], the LD50 in data set [1] was 140 mg/kg. The ED50 in the data set on mice was 9 mg/kg.
For `N#Cc1ccc(C23CNCC(CO2)O3)cc1` (stereo not drawn) [compound 19], in that order: 280 mg/kg and 19 mg/kg.
Turning to `O=C(c1ccccc1)c1cccc(C23CNCC(CO2)O3)c1` (stereo not drawn) [compound 59], in data set [1], the LD50 is 155 mg/kg. Besides, in the data set on mice, the ED50 came to 13.5 mg/kg.
